This test concerns the target human σ1 receptor (Homo sapiens (Human), UniProt Q99720). The test can be described thus: Human σ1 receptor radioligand assay. The note with it: transfected HEK-293 membranes, [3H](+)-pentazocine radioligand. Type of test: binding. On the procedure:
Human σ1 Receptor Radioligand Assay
To investigate binding properties of test compounds to human σ1 receptor, transfected HEK-293 membranes and [^3H](+)-pentazocine (Perkin Elmer, NET-1056), as the radioligand, were used. The assay was carried out with 7 μg of membrane suspension, 5 nM of [^3H](+)-pentazocine in either absence or presence of either buffer or 10 μM Haloperidol for total and non-specific binding, respectively. Binding buffer contained Tris-HCl 50 mM at pH 8. Plates were incubated at 37° C. for 120 minutes. After the incubation period, the reaction mix was then transferred to MultiScreen HTS, FC plates (Millipore), filtered and plates were washed 3 times with ice-cold 10 mM Tris-HCL (pH7.4). Filters were dried and counted at approximately 40% efficiency in a MicroBeta scintillation counter (Perkin-Elmer) using EcoScint liquid scintillation cocktail

human σ1 receptor, sequence (Q99720 whole entry): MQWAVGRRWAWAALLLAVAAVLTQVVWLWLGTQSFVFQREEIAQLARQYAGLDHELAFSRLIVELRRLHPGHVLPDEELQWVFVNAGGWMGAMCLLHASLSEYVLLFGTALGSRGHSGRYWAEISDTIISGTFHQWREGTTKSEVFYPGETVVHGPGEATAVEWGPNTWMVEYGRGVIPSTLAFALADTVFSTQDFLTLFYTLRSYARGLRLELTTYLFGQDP

As for `CC1(C)CN(C(=O)c2ccccc2)CC2(CCCN(CCc3ccccc3)CC2)O1` (stereo not shown) [Example 34, (2,2-dimethyl-9-phenethyl-1-oxa-4,9-diazaspiro[5.6]dodecan-4-yl)(phenyl)methanone], the Ki (as a rule, a measure of affinity in units of concentration, obtained from inhibition or displacement) is < 0.1 µM.

As for `CCN1CC2(CN(CCOC(C)C)C2)OC2(CC2)C1=O` [Example 35, 10-ethyl-7-(2-isopropoxyethyl)-4-oxa-7,10-diazadispiro[2.1.3.3]undecan-11-one], the Ki was ≥ 0.5 µM.

As for `CCN1CC2(CN(CCC(C)C)C2)O[C@H](C)C1=O` [Example 36, (R)-8-ethyl-2-isopentyl-6-methyl-5-oxa-2,8-diazaspiro[3.5]nonan-7-one], the Ki is ≥ 0.5 µM.

As for `CCN1CC2(CN(CCC(C)C)C2)O[C@@H](C)C1=O` [Example 37, (S)-8-ethyl-2-isopentyl-6-methyl-5-oxa-2,8-diazaspiro[3.5]nonan-7-one], the Ki was ≥ 0.5 µM.

As to `CCN1CC2(CN(CC(C)C)C2)O[C@H](C)C1=O` [Example 38, (R)-8-ethyl-2-isobutyl-6-methyl-5-oxa-2,8-diazaspiro[3.5]nonan-7-one], the Ki was ≥ 0.5 µM.

As for `CCN1CC2(CN(CC(C)C)C2)O[C@@H](C)C1=O` [Example 39, (S)-8-ethyl-2-isobutyl-6-methyl-5-oxa-2,8-diazaspiro[3.5]nonan-7-one], the Ki is ≥ 0.5 µM.

For `CC(C)CCN1CC2(C1)CN(C(C)C)C(=O)[C@@H](C)O2` [Example 40, (R)-2-isopentyl-8-isopropyl-6-methyl-5-oxa-2,8-diazaspiro[3.5]nonan-7-one], the Ki is ≥ 0.5 µM.

Regarding `CC(C)CCN1CC2(C1)CN(C(C)C)C(=O)[C@H](C)O2` [Example 41, (S)-2-isopentyl-8-isopropyl-6-methyl-5-oxa-2,8-diazaspiro[3.5]nonan-7-one], the Ki was ≥ 0.5 µM.

On to `CC(C)CN1CC2(C1)CN(C(C)C)C(=O)[C@@H](C)O2` [Example 42, (R)-2-isobutyl-8-isopropyl-6-methyl-5-oxa-2,8-diazaspiro[3.5]nonan-7-one], for which the Ki was ≥ 0.5 µM.

In the case of `CC(C)CN1CC2(C1)CN(C(C)C)C(=O)[C@H](C)O2` [Example 43, (S)-2-isobutyl-8-isopropyl-6-methyl-5-oxa-2,8-diazaspiro[3.5]nonan-7-one], the Ki is ≥ 0.5 µM.

With `CC(C)N1CC2(CN(CCC(C)(C)C)C2)O[C@@H](C)C1=O` [Example 44, (S)-2-(3,3-dimethylbutyl)-8-isopropyl-6-methyl-5-oxa-2,8-diazaspiro[3.5]nonan-7-one], the Ki is ≥ 0.5 µM.

As for `CC(C)N1CC2(CN(CCC(C)(C)C)C2)O[C@H](C)C1=O` [Example 45, (R)-2-(3,3-dimethylbutyl)-8-isopropyl-6-methyl-5-oxa-2,8-diazaspiro[3.5]nonan-7-one], the Ki was ≥ 0.5 µM.

As for `CCN1C[C@@]2(CCCN(CCC(C)C)CC2)O[C@H](C)C1=O` [Example 46, (2R,6S)-4-ethyl-9-isopentyl-2-methyl-1-oxa-4,9-diazaspiro[5.6]dodecan-3-one], the Ki was ≥ 0.5 µM.

With `CCN1C[C@]2(CCCN(CCC(C)C)CC2)O[C@H](C)C1=O` [Example 47, (2R,6R)-4-ethyl-9-isopentyl-2-methyl-1-oxa-4,9-diazaspiro[5.6]dodecan-3-one], the Ki was ≥ 0.5 µM.

On to `CCN1C[C@@]2(CCCN(CCC(C)C)CC2)O[C@@H](C)C1=O` [Example 48, (2S,6S)-4-ethyl-9-isopentyl-2-methyl-1-oxa-4,9-diazaspiro[5.6]dodecan-3-one], for which the Ki was ≥ 0.5 µM.

As to `CCN1C[C@]2(CCCN(CCC(C)C)CC2)O[C@@H](C)C1=O` [Example 49, (2S,6R)-4-ethyl-9-isopentyl-2-methyl-1-oxa-4,9-diazaspiro[5.6]dodecan-3-one], the Ki was ≥ 0.5 µM.

Consider `CC(C)OCCN1CCCC2(CC1)CN(C(=O)c1ccccc1)CC(C)(C)O2` (stereo not shown) [Example 50, (9-(2-isopropoxyethyl)-2,2-dimethyl-1-oxa-4,9-diazaspiro[5.6]dodecan-4-yl)(phenyl)methanone], for which the Ki is ≥ 0.5 µM.

Regarding `O=C(c1ccccc1)N1CC2(CC2)OC2(CCCN(Cc3ccccc3)C2)C1` (stereo not shown) [Example 55, (7-benzyl-4-oxa-7,12-diazadispiro[2.1.5.3]tridecan-12-yl)(phenyl)methanone], the Ki was ≥ 0.5 µM.

In the case of `O=C(c1ccccc1)N1CC2(CCCN(Cc3ccccc3)CC2)OC2(CC2)C1` (stereo not shown) [Example 56, (8-benzyl-4-oxa-8,13-diazadispiro[2.1.6.3]tetradecan-13-yl)(phenyl)methanone], the Ki is < 0.1 µM.

With `CCN1CC2(CCCN(Cc3ccccc3)CC2)OC(C)(C)C1=O` (stereo not shown) [Example 57, 9-benzyl-4-ethyl-2,2-dimethyl-1-oxa-4,9-diazaspiro[5.6]dodecan-3-one], the Ki was < 0.1 µM.

Take `CCN1CC2(CCCN(Cc3ccc(C#N)cc3)CC2)OC(C)(C)C1=O` (stereo not shown) [Example 58, 4-((4-ethyl-2,2-dimethyl-3-oxo-1-oxa-4,9-diazaspiro[5.6]dodecan-9-yl)methyl)benzonitrile]: the Ki was ≥ 0.5 µM.

Consider `CCN1C[C@@]2(CCCN(Cc3ccccc3)CC2)O[C@H](C)C1=O` [Example 59, (2R,6S)-9-benzyl-4-ethyl-2-methyl-1-oxa-4,9-diazaspiro[5.6]dodecan-3-one], for which the Ki is ≥ 0.5 µM.

On to `CCN1C[C@]2(CCCN(Cc3ccccc3)CC2)O[C@H](C)C1=O` [Example 60, (2R,6R)-9-benzyl-4-ethyl-2-methyl-1-oxa-4,9-diazaspiro[5.6]dodecan-3-one], for which the Ki is ≥ 0.5 µM.

Consider `CCN1C[C@@]2(CCCN(Cc3ccccc3)CC2)O[C@@H](C)C1=O` [Example 61, (2S,6S)-9-benzyl-4-ethyl-2-methyl-1-oxa-4,9-diazaspiro[5.6]dodecan-3-one], for which the Ki was ≥ 0.5 µM.

Regarding `CCN1C[C@]2(CCCN(Cc3ccccc3)CC2)O[C@@H](C)C1=O` [Example 62, (2S,6R)-9-benzyl-4-ethyl-2-methyl-1-oxa-4,9-diazaspiro[5.6]dodecan-3-one], the Ki was ≥ 0.5 µM.

As for `CCN1C[C@@]2(CCCN(Cc3ccc(F)cc3)CC2)O[C@H](C)C1=O` [Example 63, (2R,6S)-4-ethyl-9-(4-fluorobenzyl)-2-methyl-1-oxa-4,9-diazaspiro[5.6]dodecan-3-one], the inhibitory constant (Ki) is ≥ 0.5 µM.

With `CCN1C[C@]2(CCCN(Cc3ccc(F)cc3)CC2)O[C@H](C)C1=O` [Example 64, (2R,6R)-4-ethyl-9-(4-fluorobenzyl)-2-methyl-1-oxa-4,9-diazaspiro[5.6]dodecan-3-one], the Ki is ≥ 0.5 µM.

Take `CCN1C[C@@]2(CCCN(Cc3ccc(F)cc3)CC2)O[C@@H](C)C1=O` [Example 65, (2S,6S)-4-ethyl-9-(4-fluorobenzyl)-2-methyl-1-oxa-4,9-diazaspiro[5.6]dodecan-3-one]: the Ki was ≥ 0.5 µM.

Take `CCN1C[C@]2(CCCN(Cc3ccc(F)cc3)CC2)O[C@@H](C)C1=O` [Example 66, (2S,6R)-4-ethyl-9-(4-fluorobenzyl)-2-methyl-1-oxa-4,9-diazaspiro[5.6]dodecan-3-one]: the Ki was ≥ 0.5 µM.

For the molecule `CCN1C[C@@]2(CCCN(Cc3ccc(C#N)cc3)CC2)O[C@H](C)C1=O` [Example 67, 4-(((2R,6S)-4-ethyl-2-methyl-3-oxo-1-oxa-4,9-diazaspiro[5.6]dodecan-9-yl)methyl)benzonitrile], the Ki is ≥ 0.5 µM.

Turning to `CCN1C[C@]2(CCCN(Cc3ccc(C#N)cc3)CC2)O[C@H](C)C1=O` [Example 68, 4-(((2R,6R)-4-ethyl-2-methyl-3-oxo-1-oxa-4,9-diazaspiro[5.6]dodecan-9-yl)methyl)benzonitrile], the Ki was ≥ 0.5 µM.

In the case of `CCN1C[C@@]2(CCCN(Cc3ccc(C#N)cc3)CC2)O[C@@H](C)C1=O` [Example 69, 4-(((2S,6S)-4-ethyl-2-methyl-3-oxo-1-oxa-4,9-diazaspiro[5.6]dodecan-9-yl)methyl)benzonitrile], the Ki was ≥ 0.5 µM.

As to `CCN1C[C@]2(CCCN(Cc3ccc(C#N)cc3)CC2)O[C@@H](C)C1=O` [Example 70, 4-(((2S,6R)-4-ethyl-2-methyl-3-oxo-1-oxa-4,9-diazaspiro[5.6]dodecan-9-yl)methyl)benzonitrile], the Ki was ≥ 0.5 µM.

With `CN1CC2(CCCN(Cc3ccccc3)CC2)OC2(CC2)C1=O` (stereo not shown) [Example 71, 8-benzyl-13-methyl-4-oxa-8,13-diazadispiro[2.1.6.3]tetradecan-14-one], the Ki was ≥ 0.5 µM.

With `CN1CC2(CCCN(Cc3ccc(F)cc3)CC2)OC2(CC2)C1=O` (stereo not shown) [Example 72, 8-(4-fluorobenzyl)-13-methyl-4-oxa-8,13-diazadispiro[2.1.6.3]tetradecan-14-one], the Ki was ≥ 0.5 µM.

As for `CN1CC2(CCCN(Cc3ccc(C#N)cc3)CC2)OC2(CC2)C1=O` (stereo not shown) [Example 73, 4-((13-methyl-14-oxo-4-oxa-8,13-diazadispiro[2.1.6.3]tetradecan-8-yl)methyl)benzonitrile], the inhibition constant (Ki) is ≥ 0.5 µM.

On to `CCN1CC2(CN(CC(C)(C)C)C2)O[C@@H](C)C1=O` [Example 74, (S)-8-ethyl-6-methyl-2-neopentyl-5-oxa-2,8-diazaspiro[3.5]nonan-7-one], for which the Ki was ≥ 0.5 µM.

Consider `CCN1CC2(CN(CC(C)(C)C)C2)O[C@H](C)C1=O` [Example 75, (R)-8-ethyl-6-methyl-2-neopentyl-5-oxa-2,8-diazaspiro[3.5]nonan-7-one], for which the Ki was ≥ 0.5 µM.

In the case of `CC(C)N1CC2(CN(CC(C)(C)C)C2)O[C@@H](C)C1=O` [Example 76, (S)-8-isopropyl-6-methyl-2-neopentyl-5-oxa-2,8-diazaspiro[3.5]nonan-7-one], the Ki is ≥ 0.5 µM.

For the molecule `CC(C)N1CC2(CN(CC(C)(C)C)C2)O[C@H](C)C1=O` [Example 77, (R)-8-isopropyl-6-methyl-2-neopentyl-5-oxa-2,8-diazaspiro[3.5]nonan-7-one], the Ki is ≥ 0.5 µM.

The values above are taken from patent publication US10689398B2, “OXA-Diazaspiro compounds having activity against pain” (ESTEVE PHARMACEUTICALS, S.A., priority 2015, dated 2020).
